Our source for the logP and Activity values is ChEMBL document CHEMBL1139899, “Alpha-phenyl-N-tert-butyl nitrone (PBN) derivatives: synthesis and protective action against microvascular damages induced by ischemia/reperfusion” (Bioorg Med Chem, 2007).

A short description of data set [1]: Partition coefficient, log P of the compound. The class given is physicochemical. The settings on record: octanol/water.
Data set [2] has as its system Syrian golden hamster. In words: Protective effect against ischemia/reperfusion-induced microvascular damages in golden hamster assessed as number of leakage site per cm^2 at 3 mg/kg, po after 10 mins by cheek pouch assay. The class given is functional, Mesocricetus auratus.
In data set [3] the test system is Syrian golden hamster. The data set is described as follows: Protective effect against ischemia/reperfusion-induced microvascular damages in golden hamster assessed as number of leakage site per cm^2 at 3 mg/kg, po after 15 mins by cheek pouch assay. The class given is functional, Mesocricetus auratus.
Data set [4] has as its system Syrian golden hamster. The data set is described as follows: Protective effect against ischemia/reperfusion-induced microvascular damages in golden hamster assessed as number of leakage site per cm^2 at 10 mg/kg, po after 15 mins by cheek pouch assay. The class given is functional, Mesocricetus auratus.
Data set [5] has as its system Syrian golden hamster. In words: Protective effect against ischemia/reperfusion-induced microvascular damages in golden hamster assessed as number of leakage site per cm^2 at 10 mg/kg, po after 10 mins by cheek pouch assay. Type of data set: functional, Mesocricetus auratus.

What is called logP is a log measure of how a compound divides between an organic and an aqueous phase. Low readings indicate a more hydrophilic compound, high ones a more lipophilic compound. For the compound `CC(C)(C)/[N+]([O-])=C/c1ccccc1`, the logP in data set [1] stood at 1.5.
In the case of `COc1cc(/C=[N+](/[O-])C(C)(C)C)ccc1O`, the figures for the Activity in data set [2] and in data set [3] were 108 leakage sites/cm2 and 85 leakage sites/cm2, respectively. In data set [1], the logP came out at 1.58.
Take `CC(C)(C)/[N+]([O-])=C\c1ccc([N+](=O)[O-])cc1`: the Activity is recorded as 90 leakage sites/cm2 in data set [2] and 78 leakage sites/cm2 in data set [3]. Further, the logP in data set [1] is 1.39.
The matching figures for `CC(C)(C)/[N+]([O-])=C\c1cccnc1`: 68 leakage sites/cm2, 60 leakage sites/cm2 and 0.21.
Regarding `CC(C)(C)/[N+]([O-])=C/c1cc2c(cc1Br)OCO2`, the figures for the Activity in data set [2] and in data set [3] were 118 leakage sites/cm2 and 109 leakage sites/cm2, respectively. Besides, in data set [1], the logP worked out at 1.69.
For `CN(C)c1ccc(/C=[N+](/[O-])C(C)(C)C)cc1` the same measures were 75 leakage sites/cm2, 55 leakage sites/cm2 and 1.73.
On to `CC(C)(C)/[N+]([O-])=C\c1ccco1`, for which the Activity worked out at 49 leakage sites/cm2 in data set [2] and 33 leakage sites/cm2 in data set [3]. In data set [1], this compound had a lipophilicity (logP) of 1.1.
Consider `COc1cc(/C=[N+](/[O-])C(C)(C)C)ccc1OCc1ccccc1`, for which the Activity was found to be 40 leakage sites/cm2 in data set [2] and 35 leakage sites/cm2 in data set [3]. Besides, in data set [1], the logP worked out at 2.68.
For `CC(C)(C)/[N+]([O-])=C\c1ccc2c(c1)OCO2`, the Activity in data set [2] was found to be 44 leakage sites/cm2; in data set [3] it was 38 leakage sites/cm2. The compound also registered a logP in data set [1] of 0.57.
Turning to `Cc1c(C)c2c(c(C)c1O)CC[C@@](C)(CCC[C@H](C)CCC[C@H](C)CCCC(C)C)O2` [ALPHA-TOCOPHEROL], the Activity in data set [4] was 45 cm2; in data set [5], 50 cm2.
